The structures appear in SMILES notation.

Broadly, the melting point is the temperature, or range, at which the solid turns liquid. The IC50 is the concentration that inhibits the measured activity by half.

System in one series: not given
Assay: not given
Settings: not given
For the compound `Nc1ncnc2c1N=C(c1ccc(Br)cc1)CO2`, the melting point was over 200 °C.
In turn, `CC1Oc2ncnc(N)c2N=C1c1ccc(Br)cc1` (stereo not drawn) came in with a melting point of 222 to 224 °C.
On the same count and under the same terms, the value for `Cc1nc(N)c2c(n1)OCC(c1ccc(Br)cc1)=N2` was over 220 °C; that for `Nc1ncnc2c1NC(c1ccc(Br)cc1)CO2` (stereo not drawn) was over 200 °C; that for `CC1(C)Oc2ncnc(N)c2N=C1c1ccc(Br)cc1` was 201 to 203 °C.
`Cc1nc(N)c2c(n1)OC(C)(C)C(c1ccc([C@H]3CC[C@H](CC(=O)O)CC3)cc1)=N2` had a melting point of over 250 °C.
The compound `CC1(C)Oc2ncnc(N)c2NC1c1ccc(Br)cc1` (stereo not drawn) displayed a melting point of over 220 °C.
The compound `CC1(C)Oc2ncnc(N)c2N=C1c1ccc(Cl)cc1` returned a melting point of 210 to 211 °C.
In turn, `Cc1ccc(C2=Nc3c(N)ncnc3OC2(C)C)cc1` returned a melting point of 161 to 162 °C.
As for `CC1(C)Oc2ncnc(N)c2N=C1c1ccc(F)cc1`, the melting point is 189 to 190 °C.
With `CC1(C)Oc2ncnc(N)c2N=C1c1ccc(C2CCCCC2)cc1`, the melting point is 186 to 187 °C.
As for `CC1(C)Oc2ncnc(N)c2N=C1c1ccc([C@H]2CC[C@H](CC(N)=O)CC2)cc1`, the melting point was in the range of 224 to 226 °C.
`CC1(C)Oc2ncnc(N)c2N=C1c1ccc([C@H]2CC[C@H](C(=O)O)CC2)cc1` showed a melting point of over 250 °C.
Compound `CC1(C)Oc2ncnc(N)c2N=C1c1ccc([C@H]2CC[C@H](CS(N)(=O)=O)CC2)cc1` had a melting point of over 250 °C.
In the case of `COc1ccc(C2=Nc3c(N)ncnc3OC2(C)C)cc1`, the melting point lay in the range of 183 to 184 °C.
The compound `CC1(C)Oc2ncnc(N)c2N=C1c1ccc(O)cc1` gave a melting point of 245 to 246 °C.
`CC1(C)Oc2ncnc(N)c2N=C1c1ccc(-c2ccccc2)cc1` registered a melting point of 218 to 219 °C.
Compound `CC1(C)Oc2ncnc(N)c2N=C1c1ccc(C2CCC(=O)CC2)cc1` had a melting point of over 240 °C.
Same read-out and setting: to `CCCc1ccc(C2=Nc3c(N)ncnc3OC2(C)C)cc1` belongs 185 to 186 °C.
In turn, `CC1(C)Oc2ncnc(N)c2N=C1c1ccc(C(C)(C)C)cc1` came in with a melting point of 220 °C.
Turning to `CCc1ccc(C2=Nc3c(N)ncnc3OC2(C)C)cc1`, the melting point lay in the range of 135 to 136 °C.
Regarding `CC(C)c1ccc(C2=Nc3c(N)ncnc3OC2(C)C)cc1`, the melting point lay within 175 to 179 °C.
The same measure, in the same setting: to `CCCCc1ccc(C2=Nc3c(N)ncnc3OC2(C)C)cc1` belongs 157 to 160 °C; to `CC1(C)Oc2ncnc(N)c2N=C1c1ccc([C@H]2CC[C@H](CCC(=O)O)CC2)cc1`, over 250 °C.
The compound `CC1(C)Oc2ncnc(N)c2N=C1c1ccc(C2CCC(F)(F)CC2)cc1` gave a melting point of 226 to 227 °C.
Compound `CC1(C)Oc2ncnc(N)c2N=C1c1ccc(C2CCC(O)CC2)cc1` (stereo not drawn) yielded a melting point of 246 to 248 °C.
Turning to `CC1(C)Oc2ncnc(N)c2N=C1c1ccc(-c2ccc(CC(=O)O)cc2)cc1`, the melting point was over 270 °C.
For the compound `CC1(C)Oc2ncnc(N)c2N=C1c1ccc(C(C)(C)C(=O)O)cc1`, the melting point is over 250 °C.
With `CC1(C)Oc2ncnc(N)c2N=C1c1ccc([C@H]2CC[C@H](Cc3nn[nH]n3)CC2)cc1`, the melting point was over 250 °C.
For `CC1(C)Oc2ncnc(N)c2N=C1c1ccccc1`, the melting point is 189 to 190 °C.
On the same count and under the same terms, to `CC1(C)Oc2ncnc(N)c2N=C1c1ccc(N2CCCCC2)cc1` belongs 191 to 193 °C; to `CC1(C)Oc2ncnc(N)c2N=C1c1ccc(N2CCOCC2)cc1`, 214 to 219 °C.
In turn, `Nc1ncnc2c1N=C(c1ccc(F)cc1)CO2` [Example 1-2] gave a melting point of over 220 °C.
`Nc1ncnc2c1N=C(c1ccc(Cl)cc1)CO2` [Example 1-3] registered a melting point of over 220 °C.
Regarding `Cc1ccc(C2=Nc3c(N)ncnc3OC2)cc1` [Example 1-4], the melting point was in the range of 217 to 219 °C.
Same read-out and setting: to `CCN(CC)c1ccc(C2=Nc3c(N)ncnc3OC2)cc1` [Example 1-6] belongs 206 °C (dec.); to `Nc1ncnc2c1N=C(c1cccc(Br)c1)CO2` [Example 1-7], over 220 °C.
`Nc1ncnc2c1N=C(c1ccc(C(F)(F)F)cc1)CO2` [Example 1-8] registered a melting point of over 220 °C.
Turning to `Cc1nc(N)c2c(n1)OC(C)(C)C(c1ccc([C@H]3CC[C@H](CN4CCCC(O)C4=O)CC3)cc1)=N2` (stereo partly drawn) [Example 2-170], the melting point was 228 to 229 °C.
As for `Cc1nc(N)c2c(n1)OC(C)(C)C(c1ccc([C@H]3CC[C@H](CCc4noc(C(F)(F)F)n4)CC3)cc1)=N2` [Example 2-199], the melting point fell in the range of 198 to 200 °C.
The compound `Cc1nc(N)c2c(n1)OC(C)(C)C(c1ccc([C@H]3CC[C@H](Cc4n[nH]c(=O)[nH]4)CC3)c(Cl)c1)=N2` [Example 6-5] returned a melting point of over 300 °C.
In turn, `Cc1nc(N)c2c(n1)OC(C)(C)C(c1ccc([C@H]3CC[C@H](Cc4noc(=O)[nH]4)CC3)c(Cl)c1)=N2` [Example 6-6] had a melting point of over 282 °C.
Same read-out and setting: the value for `Cc1nc(N)c2c(n1)OC(C)(C)C(c1ccc([C@H]3CC[C@H](CC(=O)O)CC3)c(O)c1)=N2` [Example 6-7] was over 280 °C.

In a further series the target is T1, human DGAT1 (Homo sapiens, UniProt O75907).
T1 construct: made in house; host or cells: insect cells (sf9, sf21 or High Five) infected with baculovirus; total cell membranes
T1 sequence (O75907 1-488): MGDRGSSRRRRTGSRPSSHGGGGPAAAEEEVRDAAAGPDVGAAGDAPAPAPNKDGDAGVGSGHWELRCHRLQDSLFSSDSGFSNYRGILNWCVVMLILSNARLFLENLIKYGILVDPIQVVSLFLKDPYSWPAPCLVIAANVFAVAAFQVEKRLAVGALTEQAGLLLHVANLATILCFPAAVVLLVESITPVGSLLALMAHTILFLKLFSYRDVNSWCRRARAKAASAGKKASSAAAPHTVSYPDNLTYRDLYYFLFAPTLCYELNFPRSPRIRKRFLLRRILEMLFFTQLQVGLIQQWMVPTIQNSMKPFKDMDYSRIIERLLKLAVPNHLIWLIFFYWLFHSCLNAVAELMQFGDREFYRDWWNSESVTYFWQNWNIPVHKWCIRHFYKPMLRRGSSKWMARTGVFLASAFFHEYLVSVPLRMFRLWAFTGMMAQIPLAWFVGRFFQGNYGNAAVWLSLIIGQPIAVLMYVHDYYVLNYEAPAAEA
Kind of series: DGAT Scintillation Proximity Assay (SPA) with membranes of insect cells expressing human flagtag DGAT1. The class given is biochemical. The following applies: read-out: hDGAT1 IC50. The method, then:
In such an assay human DGAT1 is cloned from a human liver cDNA library. PCR is used to add a restriction site and flag epitope at the most 5′ end and a restriction site at the 3′ end of the sequence. Thereafter, human flagtag (FT) DGAT1 baculovirus may be generated using a Bac-to-Bac Baculovirus Expression System® (Invitrogen). Insect cells (e.g., sf9, sf2 1, or High Five) are infected for 24 to 72 h and collected by centrifugation. Cell pellets are resuspended in homogenization buffer and lysed using a homogenization device, such as a Microfluidizer. Total cell membranes are collected by ultracentrifugation at 45,000 rpm for 1 h.
A small aliquot (0.2 μg/well) of membrane is incubated with 10 μM compound or mercuric chloride (as positive control for inhibition) in the presence of enzyme substrate, dioleoyl glycerol (200 μM) in 384 well plates, final volume 50 gL per well. […] The reaction is stopped by adding Wheat Germ Agglutinin (WGA) SPA beads (0.2 mg) in mercuric chloride. Cell membranes are allowed to couple to the beads overnight. The signal can be measured using, for example, a Chemiluminescence Image Plate Reader (CLIPR) or TopCount device.
(SPA uses beads or plates that emit light when radiolabelled molecules are held near them.)
On to `Nc1ncnc2c1N=C(c1ccc(F)cc1)CO2` [Example 1-2], for which the IC50 is over 0.1 µM.
Still for that read-out and setting: the value for `Nc1ncnc2c1N=C(c1ccc(Cl)cc1)CO2` [Example 1-3] was over 0.1 µM; that for `Cc1ccc(C2=Nc3c(N)ncnc3OC2)cc1` [Example 1-4] was over 0.1 µM; that for `CCN(CC)c1ccc(C2=Nc3c(N)ncnc3OC2)cc1` [Example 1-6] was over 0.1 µM.
With `Nc1ncnc2c1N=C(c1cccc(Br)c1)CO2` [Example 1-7], the half-inhibitory concentration (IC50) is over 0.1 µM.
Consider `Nc1ncnc2c1N=C(c1ccc(C(F)(F)F)cc1)CO2` [Example 1-8], for which the IC50 was over 0.1 µM.
Take `CC1(C)Oc2ncnc(N)c2N=C1c1ccc2c(c1)CCC21CCC(C(C)(C)C(=O)O)CC1` (stereo not drawn) [Example 10-13]: the IC50 was under 0.01 µM.
In the case of `Cc1nc(N)c2c(n1)OC(C)(C)C(c1ccc(C3CCC(C(C)(C)C(=O)O)CC3)cc1)=N2` (stereo not drawn) [Example 10-14], the IC50 fell in the range of 0.01 to 0.1 µM.
The same measure, in the same setting: the value for `CC(C(=O)O)C1CCC(c2ccc(C3=Nc4c(N)nc(C(F)(F)F)nc4OC3(C)C)cc2)CC1` (stereo not drawn) [Example 10-15] was under 0.01 µM.
On the same count and under the same terms, to `Cc1nc(N)c2c(n1)OC(C)(C)C(c1ccc3c(c1)CCC31CCC(C(C)(C)C(=O)O)CC1)=N2` (stereo not drawn) [Example 10-16] belongs 0.01 to 0.1 µM; to `CC(C(=O)O)C1CCC2(CCc3cc(C4=Nc5c(N)nc(C(F)(F)F)nc5OC4(C)C)ccc32)CC1` (stereo not drawn) [Example 10-17], under 0.01 µM; to `CCc1nc(N)c2c(n1)OC(C)(C)C(c1ccc(C3CCC(CC(=O)O)CC3)cc1)=N2` (stereo not drawn) [Example 10-18], 0.01 to 0.1 µM.
Take `CC1(C)Oc2nc(C(F)(F)F)nc(N)c2N=C1c1ccc(C2CCC(C3(C(=O)O)CC3)CC2)cc1` (stereo not drawn) [Example 10-19]: the IC50 lay in the range of 0.01 to 0.1 µM.
With `CC1(C)Oc2nc(C(F)(F)F)nc(N)c2N=C1c1ccc(C2CCC(C(C)(C)C(=O)O)CC2)cc1` (stereo not drawn) [Example 10-20], the IC50 was 0.01 to 0.1 µM.
On the same count and under the same terms, the value for `Cc1nc(N)c2c(n1)OC(C)(C)C(c1ccc(C3CCC(C4(C(=O)O)CC4)CC3)cc1)=N2` (stereo not drawn) [Example 10-21] was 0.01 to 0.1 µM; that for `Cc1nc(N)c2c(n1)OC(C)(C)C(c1ccc([C@H]3CC[C@H](CC(=O)O)CC3)c(C)c1)=N2` [Example 10-22] was 0.01 to 0.1 µM.
Regarding `CCc1nc(N)c2c(n1)OC(C)(C)C(c1ccc([C@H]3CC[C@H](CC(=O)O)CC3)cc1)N2` (stereo partly drawn) [Example 10-23], the IC50 lay in the range of 0.01 to 0.1 µM.
On to `Cc1nc(N)c2c(n1)OC(C)(C)C(c1ccc3c(c1)CCC31CCC(C3(C(=O)O)CC3)CC1)=N2` (stereo not drawn) [Example 10-24], for which the IC50 lay within 0.01 to 0.1 µM.
As to `CC1(C)Oc2nc(C(F)(F)F)nc(N)c2N=C1c1ccc2c(c1)CCC21CCC(C2(C(=O)O)CC2)CC1` (stereo not drawn) [Example 10-25], the IC50 was in the range of 0.01 to 0.1 µM.
On to `CC1(C)Oc2nc(C(F)(F)F)nc(N)c2N=C1c1ccc2c(c1)CCC21CCC(C(C)(C)C(=O)O)CC1` (stereo not drawn) [Example 10-26], for which the IC50 was in the range of 0.01 to 0.1 µM.
`CCC(C(=O)O)C1CCC(c2ccc(C3=Nc4c(N)nc(C)nc4OC3(C)C)cc2)CC1` (stereo not drawn) [Example 10-27]: the IC50 fell in the range of 0.01 to 0.1 µM.
For the compound `CCC(C(=O)O)C1CCC(c2ccc(C3=Nc4c(N)nc(C(F)(F)F)nc4OC3(C)C)cc2)CC1` (stereo not drawn) [Example 10-28], the IC50 was under 0.01 µM.
The same measure, in the same setting: to `Cc1nc(N)c2c(n1)OC(C)(C)C(c1ccc(CC3CCC(C(=O)O)CC3)cc1)=N2` (stereo not drawn) [Example 10-29] belongs 0.01 to 0.1 µM; to `Cc1nc(N)c2c(n1)OC(C)(C)C(c1ccc([C@H]3CC[C@H](C(C)C(=O)O)CC3)cc1)=C2` (stereo partly drawn) [Example 10-30], 0.01 to 0.1 µM.
Still for that read-out and setting: to `CC(C(=O)O)[C@H]1CC[C@H](c2ccc(C3=Cc4c(N)ncnc4OC3(C)C)cc2)CC1` (stereo partly drawn) [Example 10-31] belongs 0.01 to 0.1 µM.
Turning to `CCC(C(=O)O)C1CCC(c2ccc(C3=Nc4c(N)ncnc4OC3(C)C)cc2)CC1` (stereo not drawn) [Example 10], the IC50 is under 0.01 µM.
